In assay [1] the target is Acetylcholinesterase (Electrophorus electricus) (UniProt O42275). Nature of the assay: Inhibition of electric eel AChE using acetylthiocholine iodide as substrate at 10 uM preincubated for 5 mins followed by substrate addition and measured after 5 mins by DTNB reagent based Ellman's method relative to control. The note with it: time 10.0 min. (In general: Ellman's reagent forms a yellow product with free thiols.)

For the next assay, the target named is Beta-secretase 1 (Homo sapiens, UniProt P56817). The note with it: dose 50.0 µM, time 60.0 min.
Beta-secretase 1, sequence (P56817 whole entry): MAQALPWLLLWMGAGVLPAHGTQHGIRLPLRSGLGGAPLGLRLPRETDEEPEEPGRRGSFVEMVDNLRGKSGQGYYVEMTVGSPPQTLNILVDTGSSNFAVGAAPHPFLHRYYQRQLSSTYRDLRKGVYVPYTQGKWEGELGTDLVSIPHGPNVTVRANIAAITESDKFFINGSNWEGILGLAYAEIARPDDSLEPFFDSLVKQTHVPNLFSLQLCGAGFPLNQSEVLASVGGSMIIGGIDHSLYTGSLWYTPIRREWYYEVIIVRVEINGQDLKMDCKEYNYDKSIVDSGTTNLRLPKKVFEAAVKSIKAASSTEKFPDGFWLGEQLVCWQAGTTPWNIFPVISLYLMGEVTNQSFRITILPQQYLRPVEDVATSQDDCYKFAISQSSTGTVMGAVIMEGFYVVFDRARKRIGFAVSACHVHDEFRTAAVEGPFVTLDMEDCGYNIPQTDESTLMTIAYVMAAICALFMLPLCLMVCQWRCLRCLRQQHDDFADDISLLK
Assay [2] concerns the target Cholinesterase (Equus caballus) (UniProt P81908). Nature of the assay: Inhibition of equine serum BuChE using butyrylthiocholine iodide as substrate at 10 uM preincubated for 5 mins followed by substrate addition and measured after 5 mins by DTNB reagent based Ellman's method relative to control. To be noted: time 10.0 min.
For assay [3], the target named is Sodium- and chloride-dependent GABA transporter 1 (Mus musculus) (UniProt P31648). Nature of the assay: Inhibition of NO 711 marker binding to mouse GAT1 assessed as residual activity at 100 uM by LC-ESI-MS/MS based competitive MS binding assay relative to control.
In another assay the target is Cholinesterase (Equus caballus, UniProt P81908).
Cholinesterase, sequence (P81908 whole entry): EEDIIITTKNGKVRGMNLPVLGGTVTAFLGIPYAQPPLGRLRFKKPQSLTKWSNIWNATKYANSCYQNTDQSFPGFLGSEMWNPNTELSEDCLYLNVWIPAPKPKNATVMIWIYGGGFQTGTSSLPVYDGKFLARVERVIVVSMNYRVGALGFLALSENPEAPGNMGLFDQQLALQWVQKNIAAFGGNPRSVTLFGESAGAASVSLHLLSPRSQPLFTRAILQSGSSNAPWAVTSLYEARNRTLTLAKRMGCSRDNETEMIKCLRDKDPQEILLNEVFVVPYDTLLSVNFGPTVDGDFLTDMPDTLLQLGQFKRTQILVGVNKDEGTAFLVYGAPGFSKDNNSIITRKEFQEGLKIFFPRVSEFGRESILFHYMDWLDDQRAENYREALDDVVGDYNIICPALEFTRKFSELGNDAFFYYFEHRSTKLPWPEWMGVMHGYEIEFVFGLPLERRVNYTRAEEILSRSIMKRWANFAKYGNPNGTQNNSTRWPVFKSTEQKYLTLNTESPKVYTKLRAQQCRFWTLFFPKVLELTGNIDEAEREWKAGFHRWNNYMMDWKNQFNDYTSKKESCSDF
The next assay has as its target T1, GABA transporter 2 (Mus musculus, UniProt P31651).
T1 sequence (P31651 whole entry): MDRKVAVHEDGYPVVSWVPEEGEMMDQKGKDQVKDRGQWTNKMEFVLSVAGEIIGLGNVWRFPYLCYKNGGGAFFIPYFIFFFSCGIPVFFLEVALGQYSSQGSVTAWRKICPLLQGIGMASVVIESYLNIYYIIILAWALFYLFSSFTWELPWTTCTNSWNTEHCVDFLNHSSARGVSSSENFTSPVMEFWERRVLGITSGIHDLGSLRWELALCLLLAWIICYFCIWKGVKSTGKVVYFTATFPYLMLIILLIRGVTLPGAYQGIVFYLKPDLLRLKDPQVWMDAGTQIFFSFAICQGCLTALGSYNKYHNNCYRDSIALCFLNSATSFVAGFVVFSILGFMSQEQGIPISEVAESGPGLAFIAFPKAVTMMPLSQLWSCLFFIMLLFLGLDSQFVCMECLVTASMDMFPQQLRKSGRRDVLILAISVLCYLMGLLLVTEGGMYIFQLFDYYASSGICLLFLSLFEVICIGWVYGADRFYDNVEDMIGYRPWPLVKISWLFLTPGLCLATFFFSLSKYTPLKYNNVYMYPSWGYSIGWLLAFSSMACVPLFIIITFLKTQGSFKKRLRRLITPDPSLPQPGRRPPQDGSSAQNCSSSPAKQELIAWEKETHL
Nature of the assay: Inhibition of mouse GAT2 transfected in HEK293 cells assessed as reduction in [3H]-GABA uptake preincubated for 25 mins followed by [3H]-GABA addition and measured after 10 mins by liquid scintillation counting analysis. The format is cell-based. The note with it: read-out: pIC50 (converted).

Assay [4] in a line: Inhibition of mouse GAT3 transfected in HEK293 cells assessed as reduction in [3H]-GABA uptake preincubated for 25 mins followed by [3H]-GABA addition and measured after 4 mins by liquid scintillation counting analysis. The format is cell-based. The note with it: for IC50: HEK293, read-out: pIC50 (converted); for pIC50: hek293.
A further assay addresses T2, GABA transporter 4 (Mus musculus, UniProt P31650).
T2 sequence (P31650 whole entry): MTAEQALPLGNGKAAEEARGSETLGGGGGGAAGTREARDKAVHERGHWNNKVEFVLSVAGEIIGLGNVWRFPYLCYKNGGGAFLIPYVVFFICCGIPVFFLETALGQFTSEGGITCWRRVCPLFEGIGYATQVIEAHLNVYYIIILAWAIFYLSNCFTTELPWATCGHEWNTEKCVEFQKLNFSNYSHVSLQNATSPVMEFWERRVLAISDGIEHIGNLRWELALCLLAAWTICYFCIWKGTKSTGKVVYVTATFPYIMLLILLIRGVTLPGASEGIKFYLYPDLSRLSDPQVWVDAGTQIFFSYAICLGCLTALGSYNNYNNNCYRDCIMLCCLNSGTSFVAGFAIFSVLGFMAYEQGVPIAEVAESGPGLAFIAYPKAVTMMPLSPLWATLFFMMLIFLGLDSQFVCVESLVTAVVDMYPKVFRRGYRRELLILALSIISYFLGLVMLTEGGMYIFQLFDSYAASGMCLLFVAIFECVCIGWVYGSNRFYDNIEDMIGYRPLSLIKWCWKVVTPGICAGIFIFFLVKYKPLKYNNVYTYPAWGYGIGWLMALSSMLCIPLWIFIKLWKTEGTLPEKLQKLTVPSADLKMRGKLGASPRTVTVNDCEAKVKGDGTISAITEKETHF
Nature of the assay: Inhibition of mouse GAT4 transfected in HEK293 cells assessed as reduction in [3H]-GABA uptake preincubated for 25 mins followed by [3H]-GABA addition and measured after 4 mins by liquid scintillation counting analysis. The note with it: read-out: pIC50 (converted). The format is cell-based.

Assay [5] concerns the target Sodium- and chloride-dependent GABA transporter 1 (Mus musculus, UniProt P31648). As to the kind of experiment: Inhibition of mouse GAT1 transfected in HEK293 cells assessed as reduction in [3H]-GABA uptake preincubated for 25 mins followed by [3H]-GABA addition and measured after 4 mins by liquid scintillation counting analysis. The format is cell-based. The note with it: for IC50: read-out: pIC50 (converted).

Acetylcholinesterase (Electrophorus electricus), sequence (O42275 24-633 limits assumed): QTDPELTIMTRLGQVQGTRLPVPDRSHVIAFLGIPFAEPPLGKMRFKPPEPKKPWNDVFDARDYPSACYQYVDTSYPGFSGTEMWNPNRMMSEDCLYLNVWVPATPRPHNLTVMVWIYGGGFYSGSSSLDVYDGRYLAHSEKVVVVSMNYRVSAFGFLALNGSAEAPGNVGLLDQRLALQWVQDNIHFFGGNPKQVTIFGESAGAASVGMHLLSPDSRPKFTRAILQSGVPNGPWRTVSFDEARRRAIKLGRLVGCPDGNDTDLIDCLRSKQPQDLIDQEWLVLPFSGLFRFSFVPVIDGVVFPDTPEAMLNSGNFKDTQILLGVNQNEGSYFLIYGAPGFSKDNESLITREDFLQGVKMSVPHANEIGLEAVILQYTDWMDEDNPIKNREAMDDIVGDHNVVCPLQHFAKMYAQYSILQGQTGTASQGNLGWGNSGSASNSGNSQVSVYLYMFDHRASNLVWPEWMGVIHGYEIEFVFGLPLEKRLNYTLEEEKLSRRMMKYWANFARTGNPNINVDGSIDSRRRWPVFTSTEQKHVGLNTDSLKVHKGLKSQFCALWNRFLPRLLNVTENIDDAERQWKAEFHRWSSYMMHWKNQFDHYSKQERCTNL
Cholinesterase (Equus caballus), sequence (P81908 whole entry): as the sequence (P81908 whole entry) above

Usually inhibition stands for the share of the control response that was lost under treatment. Read a high inhibition as a response far below the control. For the compound `CC(O)CC(C(=O)NCc1ccc(F)cc1)N(C)CC/C=C/c1ccccc1-c1ccccc1` (racemic; form 1) [listing 1 of 2 here], the inhibition is below 10% in assay [1], 39% on Beta-secretase 1 and 59% in assay [2]. Also, the Activity in [3] turned out to be 86%.

On to `CC(O)CC(C(=O)NCc1ccccc1Cl)N(C)CC/C=C/c1ccccc1-c1ccccc1` (racemic; form 2) [listing 1 of 2 here], for which the figures for the inhibition (in assay [1]; at Beta-secretase 1) were below 10% and 57%, respectively. In assay [3], the Activity amounted to 76%.

For `CN(CCOCCn1c2ccccc2c2ccccc21)C(CCO)C(=O)NCc1ccccc1Cl` (stereo not given), the IC50 against Cholinesterase is 2.65 µM; on GABA transporter 2 it was 16.2 µM; in assay [4] it was 13.2 µM; at GABA transporter 4, 11.2 µM; in [5], 23.4 µM. For the same compound, the inhibition in assay [1] is below 10%; on Beta-secretase 1, 79%. The Activity in assay [3] is 94%.

Turning to `CC(O)CC(C(=O)NCc1ccc(F)cc1)N(C)CC/C=C/c1ccccc1-c1ccccc1` (racemic; form 2) [listing 1 of 2 here], the inhibition in [1] is below 10%; on Beta-secretase 1, 36%; in assay [2] it was 62%. Besides, in assay [3], the Activity amounted to 87%.

For the compound `CC(O)CC(C(=O)NCc1ccccc1)N(C)CC/C=C/c1ccccc1-c1ccccc1` (racemic; form 1) [listing 1 of 2 here], the inhibition is below 10% in assay [1], 36% against Beta-secretase 1 and 58% in assay [2]. Besides, the Activity in [3] is 75%.

On to `CC(O)CC(C(=O)NCc1ccc(F)cc1)N(C)CC/C=C/c1ccccc1-c1ccccc1` (racemic; form 1) [listing 2 of 2 here], for which the IC50 on GABA transporter 2 was 9.77 µM; in assay [4] it was 8.91 µM; on GABA transporter 4 it was 19.1 µM; in [5] it was 24.5 µM.

Turning to `Cc1ccc(CNC(=O)C(CCO)N(C)CCOCCN2c3ccccc3Sc3ccccc32)cc1` (stereo not given), the IC50 was 2.48 µM against Cholinesterase; 12.9 µM on GABA transporter 2; 8.51 µM in [4]; 19.1 µM at GABA transporter 4; 20.4 µM in [5]. The results for the inhibition (in assay [1]; at Beta-secretase 1) were below 10% and 30%, respectively. For the same compound, the Activity in [3] is 85%.

As for `CN(CC/C=C/c1ccccc1-c1ccccc1)C(CO)C(=O)NCc1ccc(F)cc1` (stereo not given), the IC50 against Cholinesterase was 0.917 µM; on GABA transporter 2, 22.4 µM; in assay [4], 22.9 µM; on GABA transporter 4 it was 30.2 µM; in [5], 28.8 µM. Further, the inhibition in assay [1] was below 10%; against Beta-secretase 1, 52%. Also, the Activity in assay [3] was 94%.

With `CN(CCOCCn1c2ccccc2c2ccccc21)C(CCO)C(=O)NCc1ccc(F)cc1` (stereo not given), the IC50 against Cholinesterase was 4.83 µM; at GABA transporter 2 it was 13.8 µM; in [4], 16.2 µM; at GABA transporter 4, 18.2 µM; in [5], 37.2 µM. For the same compound, the figures for the inhibition (in assay [1]; on Beta-secretase 1) were below 10% and 65%, respectively. The Activity in assay [3] amounted to 112%.

Turning to `CC(O)CC(C(=O)NCc1ccccc1Cl)N(C)CC/C=C/c1ccccc1-c1ccccc1` (racemic; form 1) [listing 1 of 2 here], the inhibition in [1] was below 10%; at Beta-secretase 1 it was 43%; in assay [2] it was 64%. Moreover, in [3], the Activity came to 75%.

Take `CC(O)CC(C(=O)NCc1ccccc1Cl)N(C)CC/C=C/c1ccccc1-c1ccccc1` (racemic; form 1) [listing 2 of 2 here]: the IC50 was 15.5 µM on GABA transporter 2, 13.8 µM in assay [4], 38 µM on GABA transporter 4 and 33.9 µM in assay [5].

Regarding `CN(CCOCCn1c2ccccc2c2ccccc21)C(CCO)C(=O)NCc1ccccc1` (stereo not given), the IC50 against Cholinesterase was 4.16 µM; at GABA transporter 2, 26.9 µM; in [4] it was 14.8 µM; on GABA transporter 4, 17.4 µM; in assay [5] it was 38 µM. The inhibition in [1] is below 10%; at Beta-secretase 1, 64%. Besides, the Activity in assay [3] came to 92%.

On to `CC(=O)NCCC(C(=O)NCc1ccc(C)cc1)N(C)CCOCCN1c2ccccc2Sc2ccccc21` (stereo not given), for which the IC50 against Cholinesterase was 3.2 µM; at GABA transporter 2, 14.1 µM; in assay [4], 7.94 µM; on GABA transporter 4 it was 12.6 µM; in [5], 22.9 µM. The inhibition in assay [1] was below 10%; against Beta-secretase 1, 52%. Further, the Activity in assay [3] is 89%.

As to `CN(CC/C=C/c1ccccc1-c1ccccc1)C(CO)C(=O)NCc1ccccc1` (stereo not given), the IC50 on Cholinesterase is 0.683 µM; at GABA transporter 2, 20 µM; in assay [4] it was 17 µM; on GABA transporter 4, 17.4 µM; in assay [5] it was 25.1 µM. For the same compound, the inhibition in assay [1] is below 10%; on Beta-secretase 1, 42%. Besides, in [3], the Activity was determined as 67%.

On to `CC(O)CC(C(=O)NCc1ccccc1)N(C)CC/C=C/c1ccccc1-c1ccccc1` (racemic; form 1) [listing 2 of 2 here], for which the IC50 at GABA transporter 2 is 18.2 µM; in [4], 25.1 µM; on GABA transporter 4, 50.1 µM; in [5], 37.2 µM.

A word on the pIC50: it is the IC50 on a negative log10 scale, so that one unit is a factor of ten. As to `CC(O)CC(C(=O)NCc1ccccc1Cl)N(C)CC/C=C/c1ccccc1-c1ccccc1` (racemic; form 2) [listing 2 of 2 here], the IC50 on Cholinesterase was 3.67 µM; on GABA transporter 2 it was 13.5 µM; at GABA transporter 4 it was 15.1 µM; in assay [5] it was 28.8 µM. Moreover, in assay [4], the pIC50 is listed as 4.82.

On to `CC(O)CC(C(=O)NCc1ccc(F)cc1)N(C)CC/C=C/c1ccccc1-c1ccccc1` (racemic; form 2) [listing 2 of 2 here], for which the IC50 at GABA transporter 2 is 11.7 µM; at GABA transporter 4, 14.5 µM. The figures for the pIC50 in assay [4] and in assay [5] (hek293) were 4.87 and 4.61, respectively.

As for `CN(CCC=C1c2ccccc2CCc2ccccc21)C(CCO)C(=O)NCc1ccc(F)cc1` (stereo not given), the inhibition in assay [1] was below 10%; on Beta-secretase 1, 34%; in assay [2], 39%.

For `CN(CCC=C1c2ccccc2C=Cc2ccccc21)C(CO)C(=O)NCc1ccc(Cl)cc1` (stereo not given), the inhibition is 11% in [1], 77% at Beta-secretase 1 and 40% in assay [2].

For `CC(=O)NCCC(C(=O)NCc1ccccc1)N(C)CCC=C1c2ccccc2CCc2ccccc21` (stereo not given), the inhibition in assay [1] was below 10%; on Beta-secretase 1, 34%; in assay [2], 60%.

For `CN(CCC=C1c2ccccc2CCc2ccccc21)C(CCO)C(=O)NCc1ccccc1` (stereo not given), the values for the inhibition (in assay [1]; against Beta-secretase 1; in [2]) were below 10%, 19% and 38%, respectively.

For `CN(CCC=C1c2ccccc2C=Cc2ccccc21)C(CCO)C(=O)NCc1ccc(F)cc1` (stereo not given), the inhibition in assay [1] was below 10%; against Beta-secretase 1, 39%; in assay [2], 39%.

Take `Cc1ccc(CNC(=O)C(CCO)N(C)CCC=C2c3ccccc3-c3ccccc32)cc1` (stereo not given): the inhibition in assay [1] was below 10%; against Beta-secretase 1, 55%; in [2], 52%.

As for `CN(CCC=C1c2ccccc2C=Cc2ccccc21)C(CCO)C(=O)NCc1ccccc1` (stereo not given), the figures for the inhibition (in [1]; at Beta-secretase 1; in assay [2]) were below 10%, 34% and 56%, respectively.

Regarding `CN(CCC=C1c2ccccc2CCc2ccccc21)C(CO)C(=O)NCc1ccccc1` (stereo not given), the inhibition in [1] was below 10%; against Beta-secretase 1 it was 33%; in [2], 38%.

For the origin of these results see ChEMBL document CHEMBL5335794, “Discovery of novel multifunctional ligands targeting GABA transporters, butyrylcholinesterase, β-secretase, and amyloid β aggregation as potential treatment of Alzheimer's disease” (Eur J Med Chem, 2023).
